The structures appear in SMILES notation. Converted amounts (≈) assume the structure as drawn. Like-named read-outs stand apart in the source and are kept apart here. Numbered stars: 1 amine (or outer) side, 2 acyl side, 3 side chain; on linkers, the order of the positions; unused ones are H or OH. Bridge positions count the residues as written; N and C are the ends. Side chains are listed from the residue outwards. Peptide text beside a SMILES is read from it. * marks the point of attachment. C20 diacid = O=C(O)CCCCCCCCCCCCCCCCCCC(=O)*; γGlu = O=C(O)[C@H](CCC(=O)[*:2])N[*:1] Some results are limits rather than exact numbers.

Data set [1] can be described thus: ASSAY (IV) determination of solubility. In kind it is physicochemical. The procedure, abridged: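 Polypeptide in water at […] mixed 1:1 with 100 mM buffers of pH 3.0-8.0 (glycylglycine pH 3-5, bistrispropane pH 6-8). Held 18 h at room temperature, then centrifuged; concentration remaining in solution measured by UPLC.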
The target of data set [2] is T1, human amylin 3(a) receptor (human calcitonin receptor + RAMP-3) in BHK570 cells (Homo sapiens, UniProt O60896+P30988).
T1 construct: expressed in transfected cells
Nature of the data set: ASSAY (II)a functional assay, human amylin receptor (CRE luciferase). In kind it is cell-based. An outline of the steps:
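BHK CRE-luc cells, calcitonin (a) receptor ± RAMP-3 (amylin 3(a)); overnight seeding, 37° C/5% CO2. 3 h ligand exposure, DMEM/10% FBS/10 mM Hepes pH 7.4. LucLite 30 min RT; luminescence (SPC).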

Data set [3] concerns the target T2, human amylin receptor (membranes from Amylin 3(a)/CRE-luc cells) (Homo sapiens, UniProt O60896+P30988).
T2 construct: expressed in transfected cells
T2 sequence (P30988 25-474): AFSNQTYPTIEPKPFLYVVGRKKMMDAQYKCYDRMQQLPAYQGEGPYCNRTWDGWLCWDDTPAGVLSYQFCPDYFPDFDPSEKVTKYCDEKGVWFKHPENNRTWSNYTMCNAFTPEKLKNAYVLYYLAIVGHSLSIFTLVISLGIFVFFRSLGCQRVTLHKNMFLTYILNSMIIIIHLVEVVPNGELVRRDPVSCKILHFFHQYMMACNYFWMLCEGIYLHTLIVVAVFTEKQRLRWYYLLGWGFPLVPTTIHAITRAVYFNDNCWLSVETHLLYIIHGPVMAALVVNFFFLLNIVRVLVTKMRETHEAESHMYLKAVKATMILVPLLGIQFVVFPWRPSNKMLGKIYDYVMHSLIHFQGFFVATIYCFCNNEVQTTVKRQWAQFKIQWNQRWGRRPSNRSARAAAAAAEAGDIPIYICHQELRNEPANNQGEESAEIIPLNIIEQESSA
T2 sequence (O60896 24-148 partner): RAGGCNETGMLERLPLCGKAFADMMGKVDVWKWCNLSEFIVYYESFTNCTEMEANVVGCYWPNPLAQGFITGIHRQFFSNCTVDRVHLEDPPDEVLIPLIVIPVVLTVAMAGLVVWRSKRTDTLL
Put plainly: ASSAY (V) binding to the human amylin receptor (SPA, 125I-rat amylin).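 Note: competition binding of cell membranes (35 ng/µL) mixed with SPA beads in 384-well plates at 40 µL total volume, read by scintillation counting.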

The mark [4] stands for this setting: bistrispropane buffer, pH 6.5, read-out: Solubility pH 6.5 Concentration.
[5] abbreviates: bistrispropane buffer, pH 7.5, read-out: Solubility pH 7.5 Concentration.
Where [6] appears, read: bistrispropane buffer, pH 6.0, read-out: Solubility pH 6.0 Concentration.
[7] abbreviates: bistrispropane buffer, pH 7.0, read-out: Solubility pH 7.0 Concentration.
Setting [8] is: glycylglycine buffer, pH 4.0, read-out: Solubility pH 4.0 Concentration.
The mark [9] stands for this setting: hCTR funct. EC50 over hAmylin-R funct. EC50.
[10] abbreviates: human functional selectivity: hCTR funct. EC50 / hAmylin-R funct. EC50.
Setting [11] is: Table 5, selectivity, hCTR bind IC50 / hAmylin-R bind IC50.
Setting [12] is: Table 7, human binding selectivity, included for comparison.
The mark [13] stands for this setting: Table 7a (preferred compounds), human binding selectivity, included for comparison.
The mark [14] stands for this setting: bistrispropane buffer, pH 8.0, read-out: Solubility pH 8.0 Concentration.
Where [15] appears, read: glycylglycine buffer, pH 5.0, read-out: Solubility pH 5.0 Concentration.
The mark [16] stands for this setting: Table 5a, selectivity, hCTR bind IC50 / hAmylin-R bind IC50.
Where [17] appears, read: Table 5b, selectivity, hCTR bind IC50 / hAmylin-R bind IC50.
The mark [18] stands for this setting: Table 5c, selectivity, hCTR bind IC50 / hAmylin-R bind IC50.
Setting [19] is: ratio of human calcitonin receptor binding IC50 to human amylin receptor binding IC50.

Take `CC[C@H](C)[C@H](NC(=O)[C@H](C)NC(=O)CNC(=O)[C@@H]1CCCN1C(=O)[C@H](CC(N)=O)NC(=O)[C@H](CC(N)=O)NC(=O)[C@H](CO)NC(=O)[C@H](CO)NC(=O)[C@H](Cc1c[nH]cn1)NC(=O)[C@H](CCCNC(=N)N)NC(=O)[C@H](CC(C)C)NC(=O)[C@H](Cc1ccccc1)NC(=O)[C@H](CCC(=O)O)NC(=O)[C@H](C)NC(=O)[C@H](CC(C)C)NC(=O)[C@H](CCCNC(=N)N)NC(=O)[C@H](CCC(N)=O)NC(=O)[C@@H](NC(=O)[C@H](C)NC(=O)[C@@H]1CSSC[C@H](NC(=O)[C@@H](N)CCCCNC(=O)CC[C@H](NC(=O)CC[C@H](NC(=O)CCCCCCCCCCCCCCCCCCC(=O)O)C(=O)O)C(=O)O)C(=O)N[C@@H](CC(N)=O)C(=O)N[C@@H]([C@@H](C)O)C(=O)N[C@@H](C)C(=O)N[C@@H]([C@@H](C)O)C(=O)N1)[C@@H](C)O)C(=O)N[C@@H](CC(C)C)C(=O)N[C@@H](CO)C(=O)N[C@@H](CO)C(=O)N[C@H](C(=O)N[C@@H](CC(N)=O)C(=O)N[C@H](C(=O)NCC(=O)N1CCC[C@H]1C(=O)N[C@@H](CCC(=O)O)C(=O)N[C@H](C(=O)N[C@@H](Cc1ccc(O)cc1)C(N)=O)[C@@H](C)O)C(C)C)[C@@H](C)O` [Example 126] (H-K([γGlu-γGlu-C20 diacid])CNTATCATQRLAEFLRHSSNNPGAILSSTNVGPETY-NH2; disulfide 2-7 (inferred); N-terminus assumed): the solubility at 18 h was 131 µM (≈ 594 µg/mL) in data set [1] (setting [4]); at least 200 µM in data set [1] (setting [5]); 64 µM (≈ 290 µg/mL) in data set [1] (setting [6]); 198 µM (≈ 898 µg/mL) in data set [1] (setting [7]); 7 µM (≈ 31.7 µg/mL) in data set [1] (setting [8]). Also, the “Ratio hCT/hAmylin funct.” value in data set [2] (setting [9]) and in data set [2] (setting [10]) was 17.3 throughout. The “Ratio hCT/hAmylin binding” value in data set [3] (setting [11]), in data set [3] (setting [12]) and in data set [3] (setting [13]) was 7.8 each time.
Regarding `CC[C@H](C)[C@H](NC(=O)[C@H](C)NC(=O)CNC(=O)[C@H](Cc1ccccc1)NC(=O)[C@H](CC(N)=O)NC(=O)[C@@H]1CCCN1C(=O)[C@H](CO)NC(=O)[C@H](CO)NC(=O)[C@H](Cc1c[nH]cn1)NC(=O)[C@H](CCCNC(=N)N)NC(=O)[C@H](CC(C)C)NC(=O)[C@H](Cc1ccccc1)NC(=O)[C@H](CCC(=O)O)NC(=O)[C@H](C)NC(=O)[C@H](CC(C)C)NC(=O)[C@H](CCCNC(=N)N)NC(=O)[C@H](CCC(N)=O)NC(=O)[C@@H](NC(=O)[C@H](C)NC(=O)[C@@H]1CSSC[C@H](NC(=O)[C@@H](N)CCCCNC(=O)CC[C@H](NC(=O)CC[C@H](NC(=O)CCCCCCCCCCCCCCCCCCC(=O)O)C(=O)O)C(=O)O)C(=O)N[C@@H](CC(N)=O)C(=O)N[C@@H]([C@@H](C)O)C(=O)N[C@@H](C)C(=O)N[C@@H]([C@@H](C)O)C(=O)N1)[C@@H](C)O)C(=O)N[C@@H](CC(C)C)C(=O)N[C@@H](CO)C(=O)N[C@@H](CO)C(=O)N[C@H](C(=O)N1CCC[C@H]1C(=O)N[C@H](C(=O)NCC(=O)N1CCC[C@H]1C(=O)N[C@@H](CCC(=O)O)C(=O)N[C@H](C(=O)N[C@@H](Cc1ccc(O)cc1)C(N)=O)[C@@H](C)O)C(C)C)[C@@H](C)O` [Example 121] (H-K([γGlu-γGlu-C20 diacid])CNTATCATQRLAEFLRHSSPNFGAILSSTPVGPETY-NH2; disulfide 2-7; N-terminus assumed), the solubility at 18 h in data set [1] (setting [4]), in data set [1] (setting [5]), in data set [1] (setting [6]), in data set [1] (setting [7]), in data set [1] (setting [14]) and in data set [1] (setting [8]) was at least 200 µM in each case. The solubility at 18 h in data set [1] (setting [15]) was at least 200 µM. The “Ratio hCT/hAmylin funct.” value in data set [2] (setting [9]) and in data set [2] (setting [10]) was 5.8 throughout. Moreover, the “Ratio hCT/hAmylin binding” value in data set [3] (setting [11]), in data set [3] (setting [16]), in data set [3] (setting [17]), in data set [3] (setting [18]), in data set [3] (setting [12]) and in data set [3] (setting [13]) was 22.6 throughout. In data set [3] (setting [19]), the “Ratio hCT/hAmylin binding” value was 22.6.
In the case of `CC[C@H](C)[C@H](NC(=O)[C@H](C)NC(=O)CNC(=O)[C@H](Cc1ccccc1)NC(=O)[C@H](CC(N)=O)NC(=O)[C@@H]1CCCN1C(=O)[C@H](CO)NC(=O)[C@H](CO)NC(=O)[C@H](Cc1c[nH]cn1)NC(=O)[C@H](CCCNC(=N)N)NC(=O)[C@H](CC(C)C)NC(=O)[C@H](Cc1ccccc1)NC(=O)[C@H](C)NC(=O)[C@H](C)NC(=O)[C@H](CC(C)C)NC(=O)[C@H](CCCNC(=N)N)NC(=O)[C@H](CCC(N)=O)NC(=O)[C@@H](NC(=O)[C@H](C)NC(=O)[C@@H]1CSSC[C@H](NC(=O)[C@@H](N)CCCCNC(=O)CC[C@H](NC(=O)CCCCCCCCCCCCCCCCCCC(=O)O)C(=O)O)C(=O)N[C@@H](CC(N)=O)C(=O)N[C@@H]([C@@H](C)O)C(=O)N[C@@H](C)C(=O)N[C@@H]([C@@H](C)O)C(=O)N1)[C@@H](C)O)C(=O)N1CCC[C@H]1C(=O)N[C@@H](CO)C(=O)N[C@@H](CO)C(=O)N[C@H](C(=O)N[C@@H](CC(N)=O)C(=O)N[C@H](C(=O)NCC(=O)N[C@@H](Cc1c[nH]cn1)C(=O)N[C@@H](CC(N)=O)C(=O)N[C@H](C(=O)N[C@@H](Cc1ccc(O)cc1)C(N)=O)[C@@H](C)O)C(C)C)[C@@H](C)O` [Example 93] (H-K([γGlu-C20 diacid])CNTATCATQRLAAFLRHSSPNFGAIPSSTNVGHNTY-NH2; disulfide 2-7; N-terminus assumed), the solubility at 18 h in data set [1] (setting [4]) was at least 200 µM; in data set [1] (setting [5]) it was at least 200 µM; in data set [1] (setting [6]), at least 200 µM; in data set [1] (setting [7]), at least 200 µM; in data set [1] (setting [14]) it was at least 200 µM; in data set [1] (glycylglycine buffer, pH 3.0, read-out: Solubility pH 3.0 Concentration), at least 200 µM. For the same molecule, the solubility at 18 h in data set [1] (setting [8]) and in data set [1] (setting [15]) was at least 200 µM each time. Further, the “Ratio hCT/hAmylin funct.” value in data set [2] (hCTR funct. EC50 divided by hAmylin-R funct. EC50), in data set [2] (setting [9]) and in data set [2] (setting [10]) was 9.7 in each case. For the same molecule, the “Ratio hCT/hAmylin binding” value in data set [3] (setting [11]), in data set [3] (setting [16]), in data set [3] (setting [17]), in data set [3] (setting [18]), in data set [3] (setting [12]) and in data set [3] (setting [13]) was 101.0 in each case. Further, the “Ratio hCT/hAmylin binding” value in data set [3] (setting [19]) came to 101.0.

Values taken from patent publication US9023789B2, “Amylin analogs and pharmaceutical compositions thereof” (Novo Nordisk A/S, priority 2012, dated 2015).
